Results published in US10899707B2, “Methods for forming peroxyformic acid and uses thereof” (ECOLAB USA INC., priority 2014, dated 2021).
Several values for one entry are separate records, joined by “and”; a condition that tells them apart may be missing. Equal entries are not always repeated. Where two headings read alike, the source gives them in different places.

Assays:
[1] = tested on: microbes in water sample (80% tap water 20% produced water); assay: Kill performance (log reduction) in water sample, 5 min exposure; format: cell-based; settings: exposure time 5 min
Excerpt: Synergy examples range from pH 0 to 12 at varied concentrations. Synergistic activity is defined as a technical effect that exceeds the addition of the cumulative performance of the materials in formulation.
As referred to in Table 8 the following commercially-available test substances were employed: POAA (15% POAA, 10% H2O2), PAA 1 (21% peracetic, 3.5% H2O2), POOA (0.5% POOA, 6.8% H2O2).

[2] = tested on: acid producing bacteria (APBs); assay: Biocidal performance on treated produced water, bug bottles serial dilution; format: cell-based; settings: PFA treatment of produced water
Description: Treatment of produced water with performic acid was evaluated using performic acid compositions containing a corrosion inhibitor. As shown in FIG. 28 (grey scale) the lighter color […] in the water, whereas the darker shading indicates no growth. Untreated has E5 bacteria/mL; 0.5 ppm PFA treated has E3 bacteria/mL. The bacterial bug bottles are specific in supporting growth of acid producing bacteria (APBs). Growth of APB is indicated by a color change from dark to light color (pink to yellow). 1 mL of initial inoculum was diluted 10 times in subsequent bottles. Therefore each bottle indicates a El bacteria/mL. Based on the results observed by growth/no growth of bacteria it can be concluded that PFA treatment results in at least a reduction of 2 log (equivalent of E2 bacteria/mL) bacteria.

[3] = Performance of corrosion inhibitor in sea water and produced water systems (% protection); settings: 200 ppm active performic acid, 50 ppm corrosion inhibitor (PFA: no inhibitor)
Description: 200 ppm active of performic acid was added. 50 ppm of corrosion inhibitor was added for corrosion protection. % protection was plotted by comparison of the corrosion rate in the presence of corrosion inhibitor to the corrosion rate with no corrosion inhibitor addition (PFA or PFA-PW) as shown in Table 30.

[4] = tested on: microorganisms in produced water; assay: Microbial efficacy by ATP concentration (AccuCount) in produced water; format: cell-based; settings: PFA 5 ppm active, compounds 50 ppm product
Description: Microbial efficacy of PFA alone (5 ppm active) or PFA (5 ppm active) in conjunction with the compounds (50 ppm product) listed in the Table 20 below and in FIG. 13 were tested by measuring the ATP concentration in the untreated and treated produced water samples (using AccuCount technology). Reductions in bacterial numbers were tabulated as % kill for each experiment. The results are represented in FIG. 13 and in Table 20.

Staphylococcus = assay: Bactericidal activity of PFA versus POAA; format: cell-based; settings: S. aureus ATCC 6538, 5 minutes, dirty conditions, 20° C.
Excerpt: (§1) Staphylococcus, Enterococcus and Pseudomonas pathogens were used to evaluate the micro efficacy of PFA in comparison to POAA.

Enterococcus = assay: Bactericidal activity of PFA versus POAA; format: cell-based; settings: E. hirae ATCC 10541, 5 minutes, dirty conditions, 20° C.
Excerpt: as §1

Pseudomonas = assay: Bactericidal activity of PFA versus POAA; format: cell-based; settings: P. aeruginosa ATCC 15442, 5 minutes, dirty conditions, 20° C.
Excerpt: as §1

Various pathogens = format: cell-based; settings: for Result (Passing Requirement 5 log reduction): EN 13727
[5] = tested on: L. monocytogenes (ATCC 19114, 19116 and 4594); assay: Low temperature disinfectant efficacy, log reduction; format: cell-based; settings: 4° C.; 1 minute contact exposure; FIG. 32
Description: Micro efficacy of PFA according to the present invention was evaluated under low temperature, low oxygen conditions employing the formulation of Table 41.
The log reduction of L. monocytogenes (ATCC 19114, 19116 and 4594) were evaluated at low temperature (4° C.) comparing peroxvacetic acid to the peroxyformic acid generated according to the formulation shown in Table 41. The results are shown in FIG. 32 comparing disinfectant efficacy after a 1 minute contact exposure to the disinfectants.
As a result, the performic acid generated has a great fit for application in brewery plants. The exceptional antimicrobial efficacy of performic acid at low temperature meets the requirement of cold temperature environment of brewery operations, while common biocides including peroxycarboxylic acids such as peracetic acids will suffer the efficacy lose under low temperatures. In addition, formic acid that always coexists with performic acid is a very efficient acidulant, which will help prevent/dissolve beer stone, thus eliminate the additional acid wash. As a further benefit the performic acid composition has very high performic acid to H2O2 ratio, which practically eliminates the O2 that could potentially introduced to the liquid being processed (i.e. beer) and interfere with the organoleptic effects and negative taste effects.

[6] = tested on: Nalidixic acid resistant E. coli O157:H7; assay: Reduction of E. coli on raw beef brisket, dip treatment; format: cell-based; settings: for CFU/cm2 / CFU/ml / Log CFU/cm2: replicates
Excerpt: Nalidixic acid resistant E. coli O157:H7 was used to evaluate the efficacy in treatment with performic acid composition on raw beef brisket according to the conditions shown in Table 32.

[7] = 180 ppm PFA, pH 8.76, 10 minutes, raw beef brisket
[8] = 220 ppm POAA, pH 8.86, 10 minutes, raw beef brisket

## O=COO [PFA, peroxyformic acid]
[1]; 2 ppm PFA
  Log reduction: 3.01
[1]; 8.5 ppm PFA
  Log reduction: 5.69
[1]; 10 ppm PFA
  Log reduction: 5.28
[2]
  reduction of bacteria: ≥ 2 log
[3]; produced water (PW)
  % Protection, 3 hrs after dosing: −237.2%
  % Protection, 8 hrs after dosing: −228.1%
  % Protection, Last hour of testing: −261.2%
[3]; sea water
  % Protection, 3 hrs after dosing: −10666.2%
  % Protection, 8 hrs after dosing: −13447.5%
  % Protection, Last hour of testing: −14481.9%
[4]
  % Kill: 87.9%
Staphylococcus; 20 ppm PFA × 1.25, pH 6.61
  Average CFU/mL: <140 CFU/mL
  Log10 Growth: <2.15
Staphylococcus; 30 ppm PFA × 1.25, pH 6.74
  Average CFU/mL: <140 CFU/mL
  Log10 Growth: <2.15
Staphylococcus; 50 ppm PFA × 1.25, pH 6.60
  Average CFU/mL: <140 CFU/mL
  Log10 Growth: <2.15
Enterococcus; 20 ppm PFA × 1.25, pH 6.61
  Average CFU/mL: 6.30E+03 CFU/mL
  Log10 Growth: 3.80
Enterococcus; 30 ppm PFA × 1.25, pH 6.74
  Average CFU/mL: 2.15E+02 CFU/mL
  Log10 Growth: 2.33
Enterococcus; 50 ppm PFA × 1.25, pH 6.60
  Average CFU/mL: <140 CFU/mL
  Log10 Growth: <2.15
Pseudomonas; 20 ppm PFA × 1.25, pH 6.61
  Average CFU/mL: <140 CFU/mL
  Log10 Growth: <2.15
Pseudomonas; 30 ppm PFA × 1.25, pH 6.74
  Average CFU/mL: <140 CFU/mL
  Log10 Growth: <2.15
Pseudomonas; 50 ppm PFA × 1.25, pH 6.60
  Average CFU/mL: <140 CFU/mL
  Log10 Growth: <2.15
Various pathogens; EN 13624, Aspergillus brasiliensis ATCC 1604, 450 ppm PFA pH 6-7
  Result (Passing Requirement 4 log reduction): PASS
Various pathogens; EN 13624, Canidia albicans ATCC 10231, 450 ppm PFA pH 6-7
  Result (Passing Requirement 4 log reduction): PASS
Various pathogens; EN 13704, Bacillus subtilis ATCC 6633, 450 ppm PFA pH 6-7
  Result (Passing Requirement 3 log reduction): PASS
Various pathogens; Enterococcus hirae ATCC 10541, 450 ppm PFA pH 6-7
  Result (Passing Requirement 5 log reduction): PASS
Various pathogens; P. aeruginosa ATCC 15442, 450 ppm PFA pH 6-7
  Result (Passing Requirement 5 log reduction): PASS
Various pathogens; Staph. Aureus ATCC 6538, 450 ppm PFA pH 6-7
  Result (Passing Requirement 5 log reduction): PASS
Various pathogens; pH 6
  Result (Passing Requirement 4 log reduction): PASS
[5]
  disinfectant efficacy at the lower temperature (in words): does not decrease
[6]; [7]
  Average Log CFU/cm2: 3.22 Log CFU/cm2
  Log reduction: 0.83
  CFU/cm2: 1.84E+03 CFU/cm2 and 1.42E+03 CFU/cm2 and 1.72E+03 CFU/cm2
  CFU/ml: 9.20E+02 CFU/ml and 7.10E+02 CFU/ml and 8.60E+02 CFU/ml
  Log CFU/cm2: 3.26 Log CFU/cm2 and 3.15 Log CFU/cm2 and 3.24 Log CFU/cm2

## CC(=O)OO [POAA, peroxyacetic acid, reference compound]
Staphylococcus; 24.8 ppm POAA × 1.25, pH 6.73
  Average CFU/mL: 1.77E+05 CFU/mL
  Log10 Growth: 5.25
Staphylococcus; 37.6 ppm POAA × 1.25, pH 6.90
  Average CFU/mL: <140 CFU/mL
  Log10 Growth: <2.15
Staphylococcus; 62.4 ppm POAA × 1.25, pH 6.98
  Average CFU/mL: <140 CFU/mL
  Log10 Growth: <2.15
Enterococcus; 24.8 ppm POAA × 1.25, pH 6.73
  Average CFU/mL: >3.30E+05 CFU/mL
  Log10 Growth: >5.52
Enterococcus; 37.6 ppm POAA × 1.25, pH 6.90
  Average CFU/mL: 9.25E+03 CFU/mL
  Log10 Growth: 3.97
Enterococcus; 62.4 ppm POAA × 1.25, pH 6.98
  Average CFU/mL: <140 CFU/mL
  Log10 Growth: <2.15
Pseudomonas; 24.8 ppm POAA × 1.25, pH 6.73
  Average CFU/mL: <140 CFU/mL
  Log10 Growth: <2.15
Pseudomonas; 37.6 ppm POAA × 1.25, pH 6.90
  Average CFU/mL: <140 CFU/mL
  Log10 Growth: <2.15
Pseudomonas; 62.4 ppm POAA × 1.25, pH 6.98
  Average CFU/mL: <140 CFU/mL
  Log10 Growth: <2.15
[5]
  disinfectant efficacy at the lower temperature (in words): significantly decreases
[6]; [8]
  Average Log CFU/cm2: 2.98 Log CFU/cm2
  Log reduction: 1.06
  CFU/cm2: 1.20E+03 CFU/cm2 and 9.00E+02 CFU/cm2 and 8.00E+02 CFU/cm2
  CFU/ml: 6.00E+02 CFU/ml and 4.50E+02 CFU/ml and 4.00E+02 CFU/ml
  Log CFU/cm2: 3.08 Log CFU/cm2 and 2.95 Log CFU/cm2 and 2.90 Log CFU/cm2
[6]; 220 ppm POAA, pH 8.86, dip for 10 minutes, ambient
  Log reduction: 1.06
